Data as given in patent US20060094783A1 (Tava Pharmaceutical Industries, Ltd., priority 1990, published 2006).
Where a name gives a salt, the structure may show the parent alone. Read-outs that look alike come from different tables or passages of the source. Each block holds one compound with its values, some of them ahead of it.

Assays:
MAO-A [1] = target: T1, MAO-A (Rattus norvegicus, UniProt P21396); assay: Rat brain MAO inhibition by propargylamines (Table IA), A form; assay type: biochemical; conditions: between the two epimers
T1 construct: MAO activity determined in brain and liver; from tissue; host or cells: brain and liver of male Sprague-Dawley-derived rats
T1 sequence (P21396 1-526): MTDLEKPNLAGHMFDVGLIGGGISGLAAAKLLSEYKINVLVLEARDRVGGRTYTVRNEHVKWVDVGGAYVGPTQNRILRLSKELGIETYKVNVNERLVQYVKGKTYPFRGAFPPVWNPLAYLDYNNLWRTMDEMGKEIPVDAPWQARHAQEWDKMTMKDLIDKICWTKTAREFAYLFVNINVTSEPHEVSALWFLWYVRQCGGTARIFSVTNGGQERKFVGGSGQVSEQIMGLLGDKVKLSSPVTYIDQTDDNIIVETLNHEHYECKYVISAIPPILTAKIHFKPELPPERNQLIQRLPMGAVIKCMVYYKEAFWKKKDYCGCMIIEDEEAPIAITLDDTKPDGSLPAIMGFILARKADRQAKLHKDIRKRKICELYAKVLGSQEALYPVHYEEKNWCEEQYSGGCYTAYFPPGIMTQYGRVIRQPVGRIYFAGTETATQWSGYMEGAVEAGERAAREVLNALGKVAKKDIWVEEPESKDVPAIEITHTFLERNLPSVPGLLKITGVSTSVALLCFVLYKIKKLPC

[2] = test system: maximal electroshock seizures in mice; assay: Maximal electroshock test (MES test) in mice; assay type: in vivo, mouse; conditions: i.p.
Description: (§1) The MES test is a classical model to indicate efficacy for partial and generalized seizures in humans. The agents' mechanism of action is via their ability to prevent the spread of seizures. Some agents, however, that prevent seizure spread have the side effect of lowering seizure threshold. These agents therefore have both proconvulsive and anticonvulsive side effects.

guinea-pig ileum [3] = assay: Antagonism of bethanechol-induced (fixed dose) contractions of guinea-pig ileum; conditions: bethanechol 0.8 μM
rabbit jejunum = assay: Tyramine potentiation in isolated jejunum preparation
Description: Peripheral effects of the hydrochloride salts of the enantiomers of PAI were determined in isolated rabbit or guinea-pig small intestine. These observations provide useful information on their relative peripheral side effects in humans. The first point of contact of the subject with an orally administered drug is the gastrointestinal tract where concentrations of the drug are much higher than after absorption and distribution. In the case of PAI hydrochloride (Mw=208), a 10 mg oral dose contained in a liquid volume of about 100 ml would be equivalent to a concentration of about 0.5 mM. In contrast, the therapeutic plasma concentration of (R)-PAI hydrochloride is in the nanomolar range.

guinea-pig ileum [4] = assay: Antagonism of bethanechol-induced contractions of guinea pig ileum in presence of 400 μM PAI HCl enantiomer; conditions: 400 μM enantiomer
guinea-pig ileum [5] = assay: Antagonism of histamine-induced contractions of guinea-pig ileum; conditions: histamine 40 nM
[6] = test system: maximal electroshock seizures in rats; assay: Maximal electroshock test (MES test) in rats; assay type: in vivo, rat; conditions: p.o., 50 mg/kg
Description: as §1

[7] = test system: MPTP-induced striatal DA and DOPAC depletions in mice; assay: Suppression of MPTP-induced dopaminergic toxicity (striatal DA and DOPAC); assay type: in vivo, mouse; conditions: PAI […] i.p., deprenyl 5 mg/kg i.p., 5 days
MAO [8] = conditions: rat liver homogenate; cited from earlier work
MAO [9] = conditions: inhibiting oxidative deamination of tyramine, rat brain homogenate; cited from earlier work
[10] = test system: tyramine pressor response in conscious rats; assay: Potentiation of tyramine pressor effect in conscious rats; assay type: in vivo, rat
Description: The left carotid artery and jugular vein were cannulated with fine polytene tubing (artery) or fine silicone rubber tubing connected to polyethylene tubing (vein), the distal end of which was brought under the skin to an anchor point behind the neck. The tubing was filled with heparinized saline solution, and plugged with a fine steel rod. The animals were treated with 2. mg chloramphenicol by intramuscular injection and allowed to recover from the operation overnight. The following day, the rats were placed in a high-walled container permitting free movement. […] Following an equilibration period of 30 to 40 minutes, tyramine injections (50 or 100 μg) were given, and blood pressure-responses recorded. An interval of at least 15 minutes was maintained between injections after return of blood pressure to control values. Control pressor responses were established, then one of the drugs was injected intraperitoneally, and tyramine responses were repeated over the next 4 hours. The area under the blood pressure response curve was estimated, and the ratio of this area after treatment to before treatment and to 1 to 3 hours after injection of the compounds, was determined using the average of 3 to 4 values obtained in the control period.

MAO-A [11] = target: T1, MAO-A; assay: Inhibition of MAO activity in vivo, acute treatment, MAO-A; conditions: for IC-50 MAO-A: rat
[12] = test system: passive avoidance response in young rats; assay: Passive avoidance test in young rats (memory); assay type: in vivo, rat
Description: The effect of R(+)-PAI and S(−)-PAI on the improvement or restoration of memory was investigated in the passive avoidance test. If the drug is effective, it increases the latency of response to enter a dark compartment or chamber where an electroshock has been experienced earlier by the rat being tested. The latency of the maximal response is 300 seconds.

MAO-B [13] = target: T2, MAO-B (Rattus norvegicus, UniProt P19643); assay: Inhibition of MAO activity in vitro, rat brain homogenate, PEA substrate; assay type: biochemical; set-up: in a rat brain preparation of MAO; host or cells: rat brain preparation
T2 sequence (P19643 1-520): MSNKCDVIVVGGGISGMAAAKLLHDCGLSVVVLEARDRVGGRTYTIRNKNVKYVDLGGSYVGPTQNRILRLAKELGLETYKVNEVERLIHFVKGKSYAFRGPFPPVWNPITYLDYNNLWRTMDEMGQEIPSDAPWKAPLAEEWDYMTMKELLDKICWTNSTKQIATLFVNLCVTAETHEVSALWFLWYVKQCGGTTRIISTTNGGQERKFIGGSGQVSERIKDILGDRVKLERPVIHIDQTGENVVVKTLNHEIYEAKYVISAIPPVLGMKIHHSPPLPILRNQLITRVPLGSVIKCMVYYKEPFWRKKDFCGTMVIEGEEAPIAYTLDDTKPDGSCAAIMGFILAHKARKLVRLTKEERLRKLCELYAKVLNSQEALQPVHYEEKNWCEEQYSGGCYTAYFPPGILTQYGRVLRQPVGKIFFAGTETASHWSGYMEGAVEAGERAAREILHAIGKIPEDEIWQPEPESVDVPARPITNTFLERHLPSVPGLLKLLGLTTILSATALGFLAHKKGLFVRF
Description: The MAO enzyme source was a homogenate of rat brain in 0.3M sucrose, which was centrifuged at 600 g for 15 minutes. […] Substrate concentrations used were 50 uM (PEA) and 1 mM (5-HT). In the case of PEA, enzyme concentration was chosen so that not more than 10% of the substrate was metabolized during the course of the reaction. […] The column was washed with 1.5 ml water, the eluates pooled and the radioactive content determined by liquid scintillation spectrometry. Since the amine substrates are totally retained on the column, radioactivity in the eluate indicates the production of neutral and acidic metabolites formed as a result of MAO activity. Activity of MAO in the sample was expressed as a percentage of control activity in the absence of inhibitors after subtraction of appropriate blank values. The activity determined using PEA as substrate is referred to as MAO-B, and that determined using 5-HT as MAO-A.

MAO-B [14] = target: T2, MAO-B; conditions: rat whole brain, 1 mg/kg i.p. single dose
Description: Activity of MAO-B was determined in whole brain tissues as described hereinabove.

MAO-B [15] = target: T2, MAO-B; assay: Inhibition of MAO activity in vivo, acute treatment, MAO-B; set-up: in a rat brain preparation of MAO; host or cells: rat brain preparation; conditions: for IC-50 MAO-B: I.P., 1 h after dose
[16] = test system: Metrazol seizure threshold in mice; conditions: Kupferberg 1989; cited from earlier work
[17] = pretreatment 1 h before MPTP 30 mg/kg s.c.

Relative potency A (+/− or R/S) (MAO-A [1]): 4
SMILES: C#CCNC1CCCc2ccccc21 (racemic) [Example 1-PAT, N-propargyl-1-aminotetralin]

SMILES: C#CCN[C@H]1CCc2ccccc21 [(S)-PAI HCl, S-(−)-N-Propargyl-1-aminoindan hydrochloride]
ED50 anticonvulsant activity [2]: 57 mg/kg | Percent relaxation (guinea-pig ileum [3]; PAI concentration 20 μM): 40-50 | Percent relaxation (guinea-pig ileum [3]; PAI concentration 60 μM): 60-70 | Percent relaxation (guinea-pig ileum [3]; PAI concentration 100 μM): 100 | Percent relaxation (guinea-pig ileum [3]; PAI concentration 300 μM): 100 | Percent relaxation (rabbit jejunum; PAI HCl enantiomer alone, 0.2-4.0 μM): 0 | Percent relaxation (rabbit jejunum; tyramine 40 μM after 0.2 μM PAI HCl enantiomer): 0 | Percent relaxation (rabbit jejunum; tyramine 40 μM after 2 μM PAI HCl enantiomer): 35 | Percent relaxation (rabbit jejunum; tyramine 40 μM after 40 μM PAI HCl enantiomer): 33-50 | gram-tension (guinea-pig ileum [4]; bethanechol 0.8 μM): 0 gram-tension | gram-tension (guinea-pig ileum [4]; bethanechol 2 μM): 0 gram-tension | gram-tension (guinea-pig ileum [4]; bethanechol 4 μM): 0 gram-tension | gram-tension (guinea-pig ileum [4]; bethanechol 8 μM): 0.6 gram-tension | gram-tension (guinea-pig ileum [4]; bethanechol 40 μM): 1.7 gram-tension | Percent relaxation (guinea-pig ileum [5]; PAI concentration 2 μM): 11 | Percent relaxation (guinea-pig ileum [5]; PAI concentration 4 μM): 15 | Percent relaxation (guinea-pig ileum [5]; PAI concentration 10 μM): 30 | Percent relaxation (guinea-pig ileum [5]; PAI concentration 20 μM): 20 | Percent relaxation (guinea-pig ileum [5]; PAI concentration 30 μM): 33 | Percent relaxation (guinea-pig ileum [5]; PAI concentration 40 μM): 36 | Percent relaxation (guinea-pig ileum [5]; PAI concentration 100 μM): 71 | Percent relaxation (guinea-pig ileum [5]; PAI concentration 200 μM): 90 | Percent relaxation (guinea-pig ileum [5]; PAI concentration 400 μM): 98 | Percent relaxation (guinea-pig ileum [5]; PAI concentration 1000 μM): 100 | animals protected from seizures [6]: Four out of four

SMILES: C#CCN(C)[C@H](C)Cc1ccccc1 [DEPRENYL R, reference compound]
striatal DA ([7]; drug alone): 170.6 ± 7.1 ng/mg protein | striatal DOPAC ([7]; drug alone): 5.6 ± 0.3 ng/mg protein | striatal DA [7, 17]: 197.0 ± 8.0 ng/mg protein | striatal DOPAC [7, 17]: 6.4 ± 0.5 ng/mg protein | times as potent as the S enantiomer (MAO [8]): 15 times | times more potent than the S-(+) enantiomer (MAO [9]): 500 times

Relative potency A (+/− or R/S) (MAO-A [1]): 3
SMILES: C#CCN(C)C1CCCc2ccccc21 (stereo not drawn) [Example 2-MPAI, N-Methyl-N-propargyl-1-aminotetralin]

SMILES: C#CCN[C@@H]1CCc2ccccc21 [R(+)PAI, R(+)-N-propargyl-1-aminoindan]
potentiation of tyramine pressor response (in words) ([10]; 1 mg/kg): no significant potentiation | potentiation of tyramine pressor response (in words) ([10]; 5 mg/kg): significant potentiation | inhibition of MAO-A (MAO-A [11]; rat brain, 0.5 mg/kg oral): no detectable inhibition | IC-50 MAO-A (MAO-A [11]; I.P., brain, 1 h after dose): 1.2 mg/kg | IC-50 MAO-A (MAO-A [11]; I.P., liver, 1 h after dose): 5 mg/kg | IC-50 MAO-A (MAO-A [11]; P.O., brain, 2 h after dose): >5 mg/kg | IC-50 MAO-A (MAO-A [11]; P.O., liver, 2 h after dose): >5 mg/kg | striatal DOPAC [7, 17]: 6.0 ± 0.3 ng/mg protein | percent increase of latency After Electroshock vs corresponding group ([12]; Protocol A, anoxia-lesioned rats): 19% | percent increase of latency After Electroshock vs corresponding group ([12]; Protocol A, control rats): +9% | percent increase of latency After Electroshock vs corresponding group ([12]; Protocol B, anoxia-lesioned rats): +15% | percent increase of latency After Electroshock vs corresponding group ([12]; Protocol B, control rats): +23% | times more active for inhibition of MAO-B than MAO-A (MAO-B [13]): 29 times | times more active than S(−)PAI as inhibitor of MAO-B (MAO-B [13]): ~7,000 times | times more active than S(−)PAI as inhibitor of MAO-B (MAO-B [13]; listed as R(+)-PAI): about 7000 times | time of maximal inhibition of MAO-B after injection (MAO-B [14]): 6 h | inhibition of MAO-B in brain and liver (MAO-B [15]; 1 mg/kg): complete inhibition | IC-50 MAO-B (MAO-B [15]; brain): 0.07 mg/kg | IC-50 MAO-B (MAO-B [15]; liver): 0.06 mg/kg

SMILES: NC(=O)N1c2ccccc2C=Cc2ccccc21 [carbamazepine]
effect on time to first focal seizure and onset of clonus (proconvulsive activity) [16]: do not show this effect

SMILES: O=C1NC(=O)C(c2ccccc2)(c2ccccc2)N1 [phenytoin]
effect on time to first focal seizure and onset of clonus (proconvulsive activity) [16]: do not show this effect
